Data as given in patent US7812142B2, “Pentose derivatives as anti-hyperglycemic drugs” (Yissum Research Development Company of the Hebrew …, priority 2002, dated 2010).

Tests used:
[1] = test system: 3T3-L1 adipocytes; experiment: Screening of methylated xylose derivatives, dGlc uptake assay (Table 1); format: cell-based; conditions: Mean±SEM (n=3-6); for HEXOSE UPTAKE (Percent of Control) Without Insulin: 3T3-L1 adipocytes 24 hr at 20 mM glucose, test compounds 0.1-20.0 mM, 2-45 hr; for HEXOSE UPTAKE (Percent of Control) With Insulin: as E1, 500 nM insulin 30 min prior to uptake assay
Excerpt: There are five carbon atoms in xylose available for chemical modifications. Each of these atoms was methylated by modifications of published chemical procedures [Bollenback, G. N. (1963) In Methods in carbohydrate chemistry, vol. 2 (Whistler, R. L. and Wolfrom, M. L., eds.), pp. 326-331, Academic Press, New York; Bowering, W. and Timel, T. (1958) Can. J. Chem. 36, 283-285; Levine, P. and Raymomd, A. (1933) J. Biol. Chem. 102, 331-344; Takeo, K. (1992) Carbohyd. Res. 224, 311-318]. All compounds were purified by HPLC and their structure verified by NMR spectroscopy. […] At the end of the incubation period the cells were taken for a standard [^3H]-2-deoxy-D-glucose uptake assay in the absence or the presence of 500 nM insulin (30 min exposure prior to the uptake assay).
3T3-L1 adipocytes and L6 myotubes were maintained for 24 hr at 20 mM glucose. Test compounds were added (0.1-20.0 mM) and the cells were incubated further for 2-45 hr. At the end of the incubation periods the cells were washed and taken for a standard [^3H]2-deoxy-D-glucose (dGlc) uptake assay. Uptake values (given for control cells) are in nmol dGlc/mg protein/min. Mean±SEM (n=3-6).
(§1) Uptake assay of the tritiated glucose analogue, 2-deoxy-D-glucose, is routinely performed as described in [Sasson, S. and Cerasi, E. (1986) J. Biol. Chem. 261, 16827-16833].

[2] = test system: glucose uptake in cultured cells; experiment: In vitro glucose uptake / hexose transport in cultured cells with xylose derivatives (Table 2); format: cell-based; conditions: for EC50 / ECmax: EC = Effective concentration
Procedure: Table 2 summarizes in vitro results obtained with some of these newly synthesized xylose derivatives.
as §1
All new compounds are screened and tested first in various insulin-sensitive cell cultures used routinely in the laboratory (skeletal muscle and adipose cell lines). In addition these drugs were tested in non-insulin-sensitive cells such as primary cultures of bovine and porcine vascular endothelial and smooth muscle cells. Active compounds were tested ex-vivo on isolated rat soleus muscles. All cell cultures and tissues were maintained under hyperglycemic condition prior to the addition of the test compounds. Dose-response and time-course experiments determine which of the derivatives are subsequently tested in animal models. For each potent compound the total cell content and plasma membrane abundance of GLUT-1 and GLUT-4 was determined, as described above. The same biotinylation technique was employed to determine the total and plasma membrane content of both transporters in isolated mouse or rat soleus muscles treated with potent compounds.

[3] = test system: C2 myotubes; experiment: dGlc uptake assay in C2 myotubes; format: cell-based, mouse; conditions: 20 mM pentose, preconditioned with 20 mM glucose (FIG. 7)
Procedure: The time-course of D-xylose effect in two types of skeletal muscle cells (L8 myocytes and C2 myotubes) was studied. L8 myocytes and C2 myotubes preconditioned in 20 mM glucose were incubated with 20 mM xylose. After 90 min the cells were washed and incubated with 20 mM glucose, and subjected to a deoxyglucose dGlc uptake assay (14).
The inventors have also measured the effect of different doses of D-xylose in C2 myotubes. C2 myotubes preconditioned with 20 mM glucose received fresh medium containing 20 mM glucose or increasing concentrations of D-xylose. Standard dGlc uptake assay was performed after 1 hr incubation. […] D-xylose augmented the rate of hexose transport ˜2-fold within 1-2 hr; half-maximal stimulation was observed within 20-30 min, as shown in FIG. 2.
However, in the above experiments the cells were exposed to D-xylose after removal of the conditioning glucose concentration. […] The inventors therefore added 20 mM D-xylose to C2 myotubes in the presence of 8 or 16 mM glucose and followed its effect.
It has shown before by the inventors of the present invention that deoxyglucose (dGlc) depresses the hexose transport system in myocytes and that a subsequent incubation with low (even no) glucose fails to reverse this effect of dGlc [Sasson, S et al (1997)]. The inventors have therefore measured the effect of D-xylose on rate of hexose transport following treatment with dGlc. In one experiment, C2 myotubes preconditioned with 2 mM glucose received fresh medium containing 2 mM dGlc. A portion of the cells were washed after 30 min and received 20 MM D-xylose or 2 mM D-glucose, and subjected to a dGlc uptake assay at different time points. In another experiment, L8 myocytes preconditioned with 2 mM glucose were washed and incubated with 2 mM xylose or 2 mM dGlc. A portion of the cells were washed again after 2 hr and incubated with 20 mM xylose, and subjected to a dGlc uptake assay at different time points.
as §1

[4] = test system: L6 myotubes; experiment: dGlc uptake assay in L6 myotubes; format: cell-based, rat; conditions: for effect of PI3-kinase inhibitor LY-249002 on the substance's stimulation of hexose transport: 60 μM inhibitor, 23.0 mM glucose (FIG. 11A), EH-40 data not shown
Procedure: (§2) FIG. 10: Western blot depicting effect of 3-O-propyl-D-xylose (EH-114), and 1,3-O-dimethylxylopyranoside (EH-101) on the total cell content and plasma membrane abundance of GLUT-4 in the absence or presence of insulin. L6 myotubes were maintained for 48 hr at 23 mM Glucose. The cells were than washed and received fresh medium containing the indicated additions and incubated for additional […]. Insulin was added during the last 30 min of incubation before the dGlc uptake assay.
FIG. 11A: Effect of LY-249002, a PI3-kinase inhibitor, on insulin, D-xylose, EH-101 and EH-114-mediated glucose uptake. L6 myotubes were treated as described in the legend to FIG. 10. The glucose concentration in the culture medium was 23.0 mM. The concentration of LY-294002 was 60 μM. At the end of incubation the cells were taken for the standard dGlc uptake assay. Mean±SEM, n=3.
(§3) GLUT-1 and GLUT-4 mediate glucose entry into L6 myotubes. It is established that GLUT-4 is translocated effectively and rapidly to the plasma membrane upon insulin treatment. The inventors looked at the effect of 3-O-propyl-D-xylose EH-114) and 1,3-O-dimethylxylopyranoside (EH-101) on the total cell content and plasma membrane abundance of these transporters in the absence or presence of insulin. L6 myotubes were maintained at 5.0 or 23.0 mM glucose for 48 hr and EH-114 and EH-101 were present during the last 24 hr. The cells were then taken for the standard [^3H]-2-deoxy-D-glucose uptake assay and for the biotinylation procedure for determining the amount of GLUT-1 and GLUT-4 in the plasma membrane. High glucose levels decreased the hexose transport rate by ˜50%. Insulin augmented the transport nearly 2-fold in both cases. EH-114 and EH-101 increased the transport rate 2-3-fold in the absence of insulin. Together with insulin the uptake rate was increased nearly 3-fold.
The inventors also tested the hypothesis that the active D-xylose derivatives augment the hexose transport capacity in L6 myotubes by translocating GLUT-4 to the plasma membrane not via the common insulin-regulated pathway. For this experiment, a selective inhibitor of the enzyme PI3-kinase, LY-249002, which is a key enzyme in the cellular transduction mechanism of insulin, was utilized. […] These findings also agree well with the longer onset of action of these derivatives as compared to the rapid action of insulin. Similar results were obtained when LY-249002 was present together with the derivatives throughout the entire incubation period.
as §1

[5] = test system: PKB; experiment: PKB phosphorylation immunoblot in L6 myotubes; format: cell-based, rat; conditions: 23.0 mM glucose; 100 nM insulin, 20 mM xylose, 5 mM EH-114 or 250 μM EH-40, up to 24 hrs (FIG. 11B)
Procedure: FIG. 11B: Effects of insulin D-xylose and xylose derivatives on PKB phosphorylation. L6 myotubes were maintained at 5.5 mM or 23.0 mM glucose. The latter were treated with 100 nM insulin, 20 mM xylose, 5 mM EH-114 or 250 μM EH-40 up to 24 hrs. At the indicated times treated myotubes were collected, homogenized and lysed and the soluble protein fraction was isolated. The control myotubes were collected at the end of the 24 hr incubation period. Equal amounts of proteins of the various treated myotubes were separated on SDS-PAGE and immunoblotted with a specific antibody against phospho-Axt1/PKBα (Ser473). In order to test whether xylose derivative activate insulin transduction elements downstream of PI3K, the inventors tested the state of PKB phosphorylation, as shown in FIG. 11B.

[6] = test system: GLUT-4; experiment: Cell surface biotinylation and western blot of GLUT-4 in L6 myotubes; format: cell-based, rat
Procedure: as §2, §3
Surface biotinylation of the cells was performed as previously described [Sasson et al (1997), Diabetologia, 40, 30-398].

[7] = test system: glucose transporter; experiment: [3H]dGlc uptake with unlabeled carbohydrates (affinity for the glucose transporter) in C2 myotubes; format: cell-based, mouse; conditions: 0.1 mM dGlc, increasing unlabeled carbohydrate
Procedure: FIG. 6: Lack of affinity of D-xylose for the glucose transporters. C2 myotubes preconditioned with 20 mM glucose were subjected to [^3H]dGlc uptake assay (0.1 mM dGlc) with increasing concentrations of unlabeled dGlc, glucose or xylose. The unlabeled carbohydrates were added to the [^3H]dGlc solution in the uptake assay.
The inventors have also determined the affinity of D-xylose for the glucose transporter. C2 myotubes preconditioned with 20 mM glucose were subjected to [^3H]dGlc uptake assay (0.1 mM dGlc) in the presence of increasing concentrations of unlabeled dGlc, glucose or xylose. The results of these experiments are depicted in FIG. 6. The affinity of D-xylose for the glucose transporter is 2 orders of magnitude lower compared to glucose. The final concentration of dGlc in the assay was 0.1 mM.

Molecule | HEXOSE UPTAKE (Percent of Control) Without Insulin [1] | HEXOSE UPTAKE (Percent of Control) With Insulin [1] | Fold Increase of Glucose Uptake [2] | EC50 [2] | ECmax [2] | also measured
COC1OC[C@@H](OC)[C@H](OC)[C@H]1OC (stereo partly drawn) [1,2,3,4-O-tetramethyl xylopyranoside] | 95 ± 7% of Control | 104 ± 8% of Control |  |  |  | 
COC1OC[C@@H](O)[C@H](O)[C@H]1O (stereo partly drawn) [1-O-methyl xylopyranoside] | 154 ± 4% of Control | 156 ± 24% of Control | 1.5 fold | 6000 µM | 10 mM | 
CO[C@H]1C(O)OC[C@@H](O)[C@@H]1O (stereo partly drawn) [2-O-methyl xylopyranose] | 63 ± 7% of Control | 73 ± 15% of Control |  |  |  | 
CCO[C@@H]([C@H](O)CO)[C@@H](O)C=O [3-O-ethyl D-xylose] |  |  | 2.3 fold | 1300 µM | 4 mM | 
CO[C@H]1[C@H](O)COC(O)[C@@H]1O (stereo partly drawn) [3-O-methyl xylopyranose] | 201 ± 30% of Control | 159 ± 7% of Control | 2.0 fold | 2000 µM | 4 mM | 
CO[C@@H]1COC(O)[C@H](O)[C@H]1O (stereo partly drawn) [4-O-methyl xylopyranose] | 72 ± 112% of Control | 111 ± 2% of Control |  |  |  | 
COC[C@H]1OC(O)[C@H](O)[C@H]1O (stereo partly drawn) [5-O-methyl xylofuranose] | 70 ± 5% of Control | 53 ± 22% of Control |  |  |  | 
O=C[C@@H](O)[C@@H](O)[C@H](O)CO [D-lyxose] |  |  |  |  |  | effect of pentoses on the rate of hexose transport [3]: to a lesser extent
O=C[C@H](O)[C@H](O)[C@H](O)CO [D-ribose] |  |  |  |  |  | effect of pentoses on the rate of hexose transport [3]: to a lesser extent
COC(OC)[C@@H]1OC(c2ccccc2)O[C@@H]2COC(c3ccccc3)O[C@@H]21 (stereo partly drawn) [EH-3, 2,4:3,5-di-O-benzylidene-D-xylose-dimethylacetal] |  |  | 1.7 fold | 125 µM | 0.3 mM | 
CCSC(SCC)[C@@H]1OC(c2ccccc2)O[C@H](CO)[C@@H]1O (stereo partly drawn) [EH-40, 2,4-benzylidene-D-xylose-diethyl-dithioacetal] |  |  |  |  |  | effect of PI3-kinase inhibitor LY-249002 on the substance's stimulation of hexose transport [4]: abolished; PKB phosphorylation [5]: time-dependent and sustained phosphorylation
COC1OC[C@@H](O)[C@H](OC)[C@H]1O (stereo partly drawn) [EH-101, 1,3-O-dimethyl xylopyranoside] | 267 ± 57% of Control | 174 ± 28% of Control | 3.0 fold | 2000 µM | 4 mM | total cell content of GLUT-4 ([6]; L6 cells exposed to 23.0 mM glucose (FIG. 10)): increased the total content of the transporter; translocation of GLUT-4 to the plasma membrane ([6]; L6 myotubes, xylose derivatives in the absence of insulin, insulin 500 nM (FIG. 10)): induced significant translocation of GLUT-4 to the plasma membrane; effect of PI3-kinase inhibitor LY-249002 on the substance's stimulation of hexose transport [4]: failed to affect; increase of uptake rate together with insulin ([4]; L6 myotubes, compound during last 24 hr plus insulin): ~3 fold; duration of activity following removal from the culture media ([2]; after being washed from cell cultures): 24 h
CCS[C@@H]1OC[C@@H](O)[C@H](O)[C@H]1O [EH-143, β-ethylthio-D-xylopyranoside] |  |  |  |  |  | hexose transport augmenting activity of thioalkyl derivatives [2]: hexose transport augmenting activity
CCSC(SCC)C1OC(c2ccccc2)OC(CO)C1OC [EH-169, 3-O-methyl-2,4-O-benzylidene-D-xylose-diethyl-dithioacetal] |  |  |  |  |  | increase of [3H]-2-deoxy-D-glucose uptake ([4]; 60 μM): 1.8 fold; increase of [3H]-2-deoxy-D-glucose uptake ([4]; 120 μM): 2 fold
O=CC[C@@H](O)[C@H](O)[C@H](O)CO [dGlc, 2-deoxy-D-glucose] |  |  |  |  |  | competition with [3H]dGlc [7]: competed markedly and similarly
di-4-(1-O-methyl-xylopyranoside)-phosphoryl-PEG-O-methyl [1-O-methyl D-xylose-PEG] |  |  | 1.9 fold | 300 µM | 0.6 mM | 
